Reference: the NIST ThermoML archive (doi:10.1021/je6005778)

Conditions: Liquid; for speed of sound: Pulse-echo method

CCC(O)CO (stereo unspecified) [1,2-butanediol]
Conditions	mass density [kg/m3]	speed of sound [m/s]
288.15 K, 101.33 kPa	1005.78	–
292.87 K, 45600 kPa	–	1634.3
292.87 K, 60790 kPa	–	1681.5
292.87 K, 75990 kPa	–	1726
292.87 K, 91190 kPa	–	1768
292.87 K, 101320 kPa	–	1794.7
292.88 K, 15200 kPa	–	1528.2
292.88 K, 30400 kPa	–	1583.2
292.93 K, 101.33 kPa	–	1466.5
293.15 K, 101.33 kPa	1002.12	–
298.1 K, 101.33 kPa	–	1451.3
298.15 K, 101.33 kPa	998.408	–
298.15 K, 15200 kPa	–	1513.5
298.15 K, 30400 kPa	–	1569.2
298.15 K, 45600 kPa	–	1621.1
298.15 K, 60790 kPa	–	1668.8
298.15 K, 75990 kPa	–	1713.8
298.15 K, 91190 kPa	–	1755.9
298.15 K, 101320 kPa	–	1783
303.13 K, 15200 kPa	–	1500
303.13 K, 30400 kPa	–	1556.4
303.13 K, 45600 kPa	–	1608.8
303.13 K, 60790 kPa	–	1657.1
303.13 K, 75990 kPa	–	1702.2
303.13 K, 91190 kPa	–	1745
303.13 K, 101320 kPa	–	1772.3
303.15 K, 101.33 kPa	994.659	–
303.18 K, 101.33 kPa	–	1436.5
308.12 K, 60790 kPa	–	1645.5
308.12 K, 91190 kPa	–	1734.2
308.13 K, 15200 kPa	–	1486.6
308.13 K, 30400 kPa	–	1543.5
308.13 K, 45600 kPa	–	1596.5
308.13 K, 75990 kPa	–	1691
308.13 K, 101320 kPa	–	1761.7
308.15 K, 101.33 kPa	990.872	–
308.17 K, 101.33 kPa	–	1421.8
313.15 K, 101.33 kPa	987.048	–
313.3 K, 30400 kPa	–	1530.3
313.3 K, 45600 kPa	–	1583.7
313.3 K, 60790 kPa	–	1633.4
313.3 K, 75990 kPa	–	1679.3
313.3 K, 91190 kPa	–	1723
313.3 K, 101320 kPa	–	1750.4
313.31 K, 15200 kPa	–	1472.8
313.35 K, 101.33 kPa	–	1406.7
318.15 K, 101.33 kPa	983.185	1392.6
323.15 K, 101.33 kPa	979.285	–
328.15 K, 101.33 kPa	975.354	–
333.15 K, 101.33 kPa	971.386	–
338.16 K, 101.33 kPa	967.378	–
343.15 K, 101.33 kPa	963.333	–
348.16 K, 101.33 kPa	959.256	–
353.15 K, 101.33 kPa	955.143	–
358.15 K, 101.33 kPa	950.989	–
363.15 K, 101.33 kPa	946.804	–

CC(O)CCO (stereo unspecified) [1,3-butanediol]
Conditions	mass density [kg/m3]	speed of sound [m/s]
288.15 K, 101.33 kPa	1006.75	–
292.86 K, 45590 kPa	–	1686.5
292.86 K, 75990 kPa	–	1770.1
292.86 K, 91180 kPa	–	1808.7
292.86 K, 101320 kPa	–	1833.6
292.87 K, 15200 kPa	–	1592.1
292.87 K, 30390 kPa	–	1641
292.87 K, 60790 kPa	–	1729.5
292.92 K, 101.33 kPa	–	1537.7
293.15 K, 101.33 kPa	1003.52	–
298.15 K, 101.33 kPa	1000.23	–
298.15 K, 15200 kPa	–	1578.4
298.15 K, 30390 kPa	–	1628
298.15 K, 45590 kPa	–	1673.8
298.15 K, 60790 kPa	–	1717.4
298.15 K, 75990 kPa	–	1758.3
298.15 K, 91180 kPa	–	1797.3
298.15 K, 101320 kPa	–	1822.1
298.2 K, 101.33 kPa	–	1523.3
303.13 K, 15200 kPa	–	1565.3
303.13 K, 30390 kPa	–	1615.9
303.13 K, 45590 kPa	–	1662.2
303.13 K, 60790 kPa	–	1706
303.13 K, 75990 kPa	–	1747.3
303.13 K, 91180 kPa	–	1786.7
303.13 K, 101320 kPa	–	1811.6
303.15 K, 101.33 kPa	996.895	–
303.17 K, 101.33 kPa	–	1509.7
308.11 K, 101320 kPa	–	1801.7
308.12 K, 45590 kPa	–	1650.6
308.12 K, 75990 kPa	–	1736.7
308.13 K, 15200 kPa	–	1552.4
308.13 K, 30390 kPa	–	1603.5
308.13 K, 60790 kPa	–	1694.6
308.13 K, 91180 kPa	–	1776.3
308.15 K, 101.33 kPa	993.524	–
308.16 K, 101.33 kPa	–	1496
313.11 K, 15200 kPa	–	1539.6
313.11 K, 30390 kPa	–	1591.2
313.11 K, 45590 kPa	–	1639.1
313.11 K, 60790 kPa	–	1683.6
313.11 K, 75990 kPa	–	1725.9
313.11 K, 91180 kPa	–	1765.9
313.11 K, 101320 kPa	–	1791.5
313.14 K, 101.33 kPa	–	1482.3
313.15 K, 101.33 kPa	990.116	–
318.16 K, 101.33 kPa	986.665	–
318.29 K, 15200 kPa	–	1526.2
318.29 K, 30390 kPa	–	1578.4
318.29 K, 45590 kPa	–	1627
318.29 K, 60790 kPa	–	1672
318.29 K, 75990 kPa	–	1714.8
318.29 K, 91180 kPa	–	1755.2
318.29 K, 101320 kPa	–	1781.1
318.32 K, 101.33 kPa	–	1467.9
323.15 K, 101.33 kPa	983.181	–
328.16 K, 101.33 kPa	979.654	–
333.16 K, 101.33 kPa	976.087	–
338.15 K, 101.33 kPa	972.476	–
343.15 K, 101.33 kPa	968.825	–
348.16 K, 101.33 kPa	965.14	–
353.15 K, 101.33 kPa	961.411	–
358.15 K, 101.33 kPa	957.637	–
363.15 K, 101.33 kPa	953.825	–
